Measurements from patent US10221163B2 (priority 2015, dated 2019).
pIC50: −log10 of the molar value. Like-named read-outs stand apart in the source and are kept apart here.

Legend:
IMP-1 = IMP-1 (Serratia marcescens, UniProt P52699); experiment: biochemical; assay type: biochemical; settings: CCF2-FA substrate, 2 pM enzyme, 2 hours at 25° C.
Summary of the method: (§1)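 IC50 values derive from 4-parameter fits of percent inhibition against inhibitor concentration on semi-log axes. Activity was monitored by fluorescence with the CCF2-FA substrate after a 2-hour, 25° C incubation of compound, enzyme and substrate.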

NDM-1 = NDM-1 (Klebsiella pneumoniae, UniProt C7C422); experiment: biochemical; assay type: biochemical; settings: CCF2-FA substrate, 1 pM enzyme, 2 hours at 25° C.
Summary of the method: as §1

VIM-1 = VIM-1 (Pseudomonas aeruginosa (strain ATCC 15692 / DSM 22644 / CIP 104116 / JCM 14847 / LMG 12228 / 1C / PRS 101 / PAO1), UniProt A0A0F7KYQ8); experiment: biochemical; settings: CCF2-FA substrate, 30 pM enzyme, 2 hours at 25° C.
Summary of the method: as §1

[1] = test system: Escherichia coli expressing NDM-1 (CLB30005, CLB30016); assay type: cell-based; settings: with imipenem 1 μg/ml; 95% inhibition of bacterial growth
Summary of the method: (§2)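 Clinical strains grown overnight on blood agar at 35°C, colonies suspended in saline, diluted 1:100 into 1.1×CAMHB. Test compound titrated with imipenem at 1 μg/ml; incubated 22–24 h at 35°C, growth read by absorbance.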

[2] = test system: Klebsiella pneumoniae expressing VIM-1 (IHMA599644); assay type: cell-based; settings: with imipenem 1 μg/ml; 95% inhibition of bacterial growth
Summary of the method: as §2

[3] = test system: Serratia marcescens expressing IMP-1 (CL5741); assay type: cell-based; settings: with imipenem 1 μg/ml; 95% inhibition of bacterial growth
Summary of the method: as §2

[4] = test system: Pseudomonas aeruginosa efflux+ (MB9798), IMP-1; assay type: cell-based; settings: concentration restoring susceptibility to imipenem at 2 μg/mL in the presence of a class A, C, D serine β-lactamase inhibitor closely related to relebactam
Summary of the method: (§3)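 P. aeruginosa PAO1-derived IMP-1 strains, efflux+ MB9798 and efflux− MB9799, tested by standard microbroth MIC with imipenem and/or ceftazidime fixed, usually at CLSI breakpoint, plus fixed class A/C β-lactamase inhibitor against AmpC. Inhibitor titrated; concentration restoring susceptibility recorded; MB9798/MB9799 fold difference indicates efflux.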

[5] = test system: Pseudomonas aeruginosa efflux− (MB9799), IMP-1; assay type: cell-based; settings: concentration restoring susceptibility to imipenem at 2 μg/mL in the presence of a class A, C, D serine β-lactamase inhibitor closely related to relebactam
Summary of the method: as §3

[6] = test system: Pseudomonas aeruginosa MB9798 vs MB9799; settings: ratio MITC95 PA_9798/MITC95 PA_9799
Summary of the method: as §3

[7] = fluorescence assay, read-out: IMP-1 IC50
[8] = fluorescence assay, read-out: NDM-1 IC50
[9] = fluorescence assay, read-out: VIM-1 IC50

Chain of IMP-1 (P52699 whole entry, looked up, species assumed): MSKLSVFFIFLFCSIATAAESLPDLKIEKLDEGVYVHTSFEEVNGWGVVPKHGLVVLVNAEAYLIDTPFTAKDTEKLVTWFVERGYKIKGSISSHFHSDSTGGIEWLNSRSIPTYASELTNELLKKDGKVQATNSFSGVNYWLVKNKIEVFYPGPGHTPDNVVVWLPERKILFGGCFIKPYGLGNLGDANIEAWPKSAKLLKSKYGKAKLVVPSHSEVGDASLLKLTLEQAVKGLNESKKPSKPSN
Chain of NDM-1 (C7C422 whole entry, looked up, species assumed): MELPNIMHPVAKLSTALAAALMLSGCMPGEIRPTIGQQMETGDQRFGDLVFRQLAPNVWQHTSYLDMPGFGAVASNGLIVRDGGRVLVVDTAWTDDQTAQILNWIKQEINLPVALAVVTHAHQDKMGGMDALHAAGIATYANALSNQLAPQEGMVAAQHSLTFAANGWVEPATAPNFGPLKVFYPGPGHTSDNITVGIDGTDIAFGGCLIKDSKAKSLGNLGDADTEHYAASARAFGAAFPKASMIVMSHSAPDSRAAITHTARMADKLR

Row | Structure (SMILES) | pIC50 (IMP-1; [7]) | pIC50 (NDM-1; [8]) | pIC50 (VIM-1; VIM-1 IC50, fluorescence assay) | Escherichia coli expressing NDM-1 (CLB30016) MITC95 [1] [µM] | Klebsiella pneumoniae expressing VIM-1 (IHMA599644) MITC95 [2] [µM] | Serratia marcescens expressing IMP-1 (CL5741) MITC95 [3] [µM] | P. aeruginosa expressing IMP-1, efflux + (MB9798) MITC95 [4] [µM] | P. aeruginosa expressing IMP-1, efflux − (MB9799) MITC95 [5] [µM] | Efflux ratio [6] | pIC50 (VIM-1; [9]) | pIC50 (IMP-1; IMP-1 IC50, fluorescence assay) | pIC50 (NDM-1; NDM-1 IC50, fluorescence assay)
1 | Nc1nc2c(-c3ccc(S(=O)(=O)N4CC[C@@H](N)C4)c(S(N)(=O)=O)c3-c3nnn[nH]3)cccc2s1 [Example 62, 3-(2-amino-1,3-benzothiazol-4-yl)-6-{[(3R)-3-aminopyrrolidin-1-yl]sulfonyl}-2-(1H-tetrazol-5-yl)benzenesulfonamide] | 8.89 | 9.07 | 8.79 | 3.125 | 3.125 | 1.563 | 1.563 | 1.563 | 1.00 | – | – | –
2 | Nc1nc2c(-c3ccc(S(=O)(=O)N[C@@H]4CCNC4)c(S(N)(=O)=O)c3-c3nnn[nH]3)cccc2s1 [Example 63, 4-(2-amino-1,3-benzothiazol-4-yl)-N1-[(3R)-pyrrolidin-3-yl]-3-(1H-tetrazol-5-yl)benzene-1,2-disulfonamide] | 9.51 | 10.35 | – | 1.563 | 1.563 | 1.563 | 0.7813 | 1.563 | 0.50 | 9.59 | – | –
3 | CN(C1CCCNC1)S(=O)(=O)c1ccc(-c2cccc3sc(N)nc23)c(-c2nnn[nH]2)c1S(N)(=O)=O (stereo not drawn) [Example 64, 4-(2-amino-1,3-benzothiazol-4-yl)-N1-methyl-N1-piperidin-3-yl-3-(1H-tetrazol-5-yl)benzene-1,2-disulfonamide] | 8.67 | 8.83 | 8.24 | 12.5 | 12.5 | 1.563 | 3.125 | 1.563 | 2.00 | – | – | –
4 | CN([C@H]1CCNC1)S(=O)(=O)c1ccc(-c2cccc3sc(N)nc23)c(-c2nnn[nH]2)c1S(N)(=O)=O [Example 65, 4-(2-amino-1,3-benzothiazol-4-yl)-N1-methyl-N1-[(3S)-pyrrolidin-3-yl]-3-(1H-tetrazol-5-yl)benzene-1,2-disulfonamide] | 9.15 | 9.33 | – | 6.25 | 3.125 | 3.125 | 3.125 | 1.563 | 2.00 | 8.84 | – | –
5 | Nc1nc2c(-c3ccc(S(=O)(=O)N4CCC[C@H](N)C4)c(S(N)(=O)=O)c3-c3nnn[nH]3)cccc2s1 [Example 66, 3-(2-amino-1,3-benzothiazol-4-yl)-6-{[(3S)-3-aminopiperidin-1-yl]sulfonyl}-2-(1H-tetrazol-5-yl)benzenesulfonamide] | 8.65 | 8.96 | – | 3.125 | 6.25 | 3.125 | 3.125 | 1.563 | 2.00 | 8.40 | – | –
6 | Nc1nc2c(-c3ccc(S(=O)(=O)N[C@H]4CCCNC4)c(S(N)(=O)=O)c3-c3nnn[nH]3)cccc2s1 [Example 67, 4-(2-amino-1,3-benzothiazol-4-yl)-N1-[(3S)-piperidin-3-yl]-3-(1H-tetrazol-5-yl)benzene-1,2-disulfonamide] | 9.31 | 10.39 | 9.57 | 1.563 | 3.125 | 1.563 | 1.563 | 1.563 | 1.00 | – | – | –
7 | Nc1nc2c(-c3ccc(S(=O)(=O)N4CCC[C@@H](N)C4)c(S(N)(=O)=O)c3-c3nnn[nH]3)cccc2s1 [Example 68, 3-(2-amino-1,3-benzothiazol-4-yl)-6-{[(3R)-3-aminopiperidin-1-yl]sulfonyl}-2-(1H-tetrazol-5-yl)benzenesulfonamide] | – | – | – | 3.125 | 3.125 | 1.563 | 3.125 | 1.563 | 2.00 | 8.43 | 8.71 | 9.00
8 | Nc1nc2c(-c3ccc(S(=O)(=O)N[C@@H]4CCCNC4)c(S(N)(=O)=O)c3-c3nnn[nH]3)cccc2s1 [Example 69, 4-(2-amino-1,3-benzothiazol-4-yl)-N1-[(3R)-piperidin-3-yl]-3-(1H-tetrazol-5-yl)benzene-1,2-disulfonamide] | 9.73 | 10.49 | 9.73 | 0.7813 | 3.125 | 1.563 | 0.7813 | 1.563 | 0.50 | – | – | –
9 | NC[C@@H]1CCN(S(=O)(=O)c2ccc(-c3cccc4sc(N)nc34)c(-c3nnn[nH]3)c2S(N)(=O)=O)C1 [Example 70, 3-(2-amino-1,3-benzothiazol-4-yl)-6-{[(3S)-3-(aminomethyl)pyrrolidin-1-yl]sulfonyl}-2-(1H-tetrazol-5-yl)benzenesulfonamide] | 8.64 | 8.71 | 8.55 | 6.25 | 12.5 | 3.125 | 3.125 | 3.125 | 1.00 | – | – | –
10 | Nc1nc2c(-c3ccc(S(=O)(=O)NC[C@H]4CCNC4)c(S(N)(=O)=O)c3-c3nnn[nH]3)cccc2s1 [Example 73, 4-(2-amino-1,3-benzothiazol-4-yl)-N^1-[(3S)-pyrrolidin-3-ylmethyl]-3-(1H-tetrazol-5-yl)benzene-1,2-disulfonamide] | – | 10.48 | 9.90 | 1.563 | 3.125 | 1.563 | 0.7813 | 1.563 | 0.50 | – | 9.80 | –
11 | NC[C@H]1CCN(S(=O)(=O)c2ccc(-c3cccc4sc(N)nc34)c(-c3nnn[nH]3)c2S(N)(=O)=O)C1 [Example 74, 3-(2-amino-1,3-benzothiazol-4-yl)-6-{[(3R)-3-(aminomethyl)pyrrolidin-1-yl]sulfonyl}-2-(1H-tetrazol-5-yl)benzenesulfonamide] | – | 9.19 | 8.94 | 2.344 | 3.125 | 2.344 | 1.172 | 1.172 | 1.00 | – | 9.08 | –
12 | Nc1nc2c(-c3ccc(S(=O)(=O)NC[C@@H]4CCNC4)c(S(N)(=O)=O)c3-c3nnn[nH]3)cccc2s1 [Example 75, 4-(2-amino-1,3-benzothiazol-4-yl)-N^1-[(3R)-pyrrolidin-3-ylmethyl]-3-(1H-tetrazol-5-yl)benzene-1,2-disulfonamide] | – | 10.68 | 9.94 | 1.563 | 3.125 | 1.563 | 0.7813 | 0.7813 | 1.00 | – | 9.80 | –
